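Following 48 hours of exposure in 96-well plates, responses at five concentrations were used to interpolate endpoints linearly. GI50 marks 50% less growth. TGI denotes the concentration required for complete inhibition of growth.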
Assays:
Test in all cases: inhibition of tumour cell growth, NCI panel, 48 h
786-0 renal = system: 786-0 renal
A498 renal = system: A498 renal
A549 NSCLC = system: A549 NSCLC
ACHN renal = system: ACHN renal
BT-549 breast = system: BT-549 breast
CAKI-1 renal = system: CAKI-1 renal
CCRF-CEM leukemia = system: CCRF-CEM leukemia
COLO 205 colon = system: COLO 205 colon
DU-145 prostate = system: DU-145 prostate
EKVX NSCLC = system: EKVX NSCLC
HCC-2998 colon = system: HCC-2998 colon
HL-60(TB) leukemia = system: HL-60(TB) leukemia
HOP-62 NSCLC = system: HOP-62 NSCLC
HOP-92 NSCLC = system: HOP-92 NSCLC
HS 578T breast = system: HS 578T breast
HT29 colon = system: HT29 colon
IGROV1 ovarian = system: IGROV1 ovarian
K-562 leukemia = system: K-562 leukemia
LOX IMVI melanoma = system: LOX IMVI melanoma
M14 melanoma = system: M14 melanoma
MALME-3M melanoma = system: MALME-3M melanoma
MCF7 breast = system: MCF7 breast
MDA-MB-231 breast = system: MDA-MB-231 breast
NCI-H226 lung = system: NCI-H226 lung
NCI-H23 lung = system: NCI-H23 lung
NCI-H460 lung = system: NCI-H460 lung
NCI-H522 lung = system: NCI-H522 lung
NCI/ADR-RES ovarian = system: NCI/ADR-RES ovarian
OVCAR-3 ovarian = system: OVCAR-3 ovarian
OVCAR-4 ovarian = system: OVCAR-4 ovarian
OVCAR-5 ovarian = system: OVCAR-5 ovarian
OVCAR-8 ovarian = system: OVCAR-8 ovarian
PC-3 prostate = system: PC-3 prostate
RPMI-8226 leukemia = system: RPMI-8226 leukemia
RXF 393 renal = system: RXF 393 renal
SF-268 CNS = system: SF-268 CNS
SF-295 CNS = system: SF-295 CNS
SF-539 CNS = system: SF-539 CNS
SK-MEL-2 melanoma = system: SK-MEL-2 melanoma
SK-MEL-5 melanoma = system: SK-MEL-5 melanoma
SK-OV-3 ovarian = system: SK-OV-3 ovarian
SN12C renal = system: SN12C renal
SNB-19 CNS = system: SNB-19 CNS
SNB-75 CNS = system: SNB-75 CNS
SR leukemia = system: SR leukemia
SW-620 colon = system: SW-620 colon
T-47D breast = system: T-47D breast
TK-10 renal = system: TK-10 renal
U251 CNS = system: U251 CNS
UACC-257 melanoma = system: UACC-257 melanoma
UACC-62 melanoma = system: UACC-62 melanoma
UO-31 renal = system: UO-31 renal
HCT-116 colon = system: HCT-116 colon
HCT-15 colon = system: HCT-15 colon
KM12 colon = system: KM12 colon
SK-MEL-28 melanoma = system: SK-MEL-28 melanoma

## C=C(C)[C@@H]1CC[C@]2(CO)CC[C@]3(C)[C@H](CC[C@@H]4[C@@]5(C)C=C(C#N)C(=O)C(C)(C)[C@@H]5CC[C@]43C)[C@@H]12
786-0 renal
  GI50: 1.92 µM
  TGI: 3.98 µM
A498 renal
  GI50: 1.37 µM
  TGI: 2.99 µM
A549 NSCLC
  GI50: 1.56 µM
  TGI: 3.5 µM
ACHN renal
  GI50: 1.72 µM
  TGI: 4.77 µM
BT-549 breast
  GI50: 2.13 µM
  TGI: 6.18 µM
CAKI-1 renal
  GI50: 2.82 µM
  TGI: 14.4 µM
CCRF-CEM leukemia
  GI50: 2.11 µM
  TGI: 8.7 µM
COLO 205 colon
  GI50: 1.38 µM
  TGI: 2.72 µM
DU-145 prostate
  GI50: 1.97 µM
  TGI: 5.75 µM
EKVX NSCLC
  GI50: 1.63 µM
  TGI: 4.61 µM
HCC-2998 colon
  GI50: 2.03 µM
  TGI: 4.22 µM
HL-60(TB) leukemia
  GI50: 0.471 µM
  TGI: 5.5 µM
HOP-62 NSCLC
  GI50: 1.74 µM
  TGI: 3.85 µM
HOP-92 NSCLC
  GI50: 2.22 µM
  TGI: 5.15 µM
HS 578T breast
  GI50: 1.89 µM
  TGI: 6.84 µM
HT29 colon
  GI50: 1.16 µM
  TGI: 4.76 µM
IGROV1 ovarian
  GI50: 0.684 µM
  TGI: 4.65 µM
K-562 leukemia
  GI50: 2.2 µM
  TGI: > 100 µM
LOX IMVI melanoma
  GI50: 1.18 µM
  TGI: 2.68 µM
M14 melanoma
  GI50: 1.55 µM
  TGI: 3.78 µM
MALME-3M melanoma
  GI50: 1.4 µM
  TGI: 3.82 µM
MCF7 breast
  GI50: 0.34 µM
  TGI: 7.66 µM
MDA-MB-231 breast
  GI50: 1.56 µM
  TGI: 4.82 µM
NCI-H226 lung
  GI50: 2.39 µM
  TGI: 5.49 µM
NCI-H23 lung
  GI50: 2 µM
  TGI: 6.05 µM
NCI-H460 lung
  GI50: 1.37 µM
  TGI: 5.17 µM
NCI-H522 lung
  GI50: 1.9 µM
  TGI: 6.58 µM
NCI/ADR-RES ovarian
  GI50: 1.81 µM
  TGI: 5.04 µM
OVCAR-3 ovarian
  GI50: 1.27 µM
  TGI: 2.73 µM
OVCAR-4 ovarian
  GI50: 0.769 µM
  TGI: 5.11 µM
OVCAR-5 ovarian
  GI50: 2.13 µM
  TGI: 5.75 µM
OVCAR-8 ovarian
  GI50: 1.88 µM
  TGI: 5.24 µM
PC-3 prostate
  GI50: 1.57 µM
  TGI: 5.42 µM
RPMI-8226 leukemia
  GI50: 0.809 µM
  TGI: 3.86 µM
RXF 393 renal
  GI50: 1.13 µM
  TGI: 2.76 µM
SF-268 CNS
  GI50: 1.46 µM
  TGI: 4.78 µM
SF-295 CNS
  GI50: 1.73 µM
  TGI: 3.96 µM
SF-539 CNS
  GI50: 2.61 µM
  TGI: 8.34 µM
SK-MEL-2 melanoma
  GI50: 1.91 µM
  TGI: 4.59 µM
SK-MEL-5 melanoma
  GI50: 1.2 µM
  TGI: 2.52 µM
SK-OV-3 ovarian
  GI50: 2.72 µM
  TGI: 6.12 µM
SN12C renal
  GI50: 1.17 µM
  TGI: 4.27 µM
SNB-19 CNS
  GI50: 1.58 µM
  TGI: 4.08 µM
SNB-75 CNS
  GI50: 1.04 µM
  TGI: 3.39 µM
SR leukemia
  GI50: 1.53 µM
  TGI: 6.01 µM
SW-620 colon
  GI50: 2.24 µM
  TGI: 5.12 µM
T-47D breast
  GI50: 1.12 µM
  TGI: 5.79 µM
TK-10 renal
  GI50: 2.09 µM
  TGI: 6.06 µM
U251 CNS
  GI50: 1.36 µM
  TGI: 2.8 µM
UACC-257 melanoma
  GI50: 1.29 µM
  TGI: 3.04 µM
UACC-62 melanoma
  GI50: 0.72 µM
  TGI: 2.44 µM
UO-31 renal
  GI50: 1.05 µM
  TGI: 2.77 µM

## COc1ccc(-c2nc3ccccn3c2/C=C/C(=O)c2cc(OC)c(OC)c(OC)c2)cc1OC
786-0 renal
  GI50: 3.74 µM
  TGI: 71 µM
A498 renal
  GI50: 2.93 µM
  TGI: 17.8 µM
A549 NSCLC
  GI50: 3.86 µM
  TGI: 30.7 µM
ACHN renal
  GI50: 3.22 µM
  TGI: 15.7 µM
BT-549 breast
  GI50: 0.899 µM
  TGI: 3.2 µM
CAKI-1 renal
  GI50: 1.39 µM
  TGI: 20.2 µM
CCRF-CEM leukemia
  GI50: 1.54 µM
  TGI: > 100 µM
COLO 205 colon
  GI50: 3.92 µM
  TGI: > 100 µM
DU-145 prostate
  GI50: 2.63 µM
  TGI: 8.14 µM
EKVX NSCLC
  GI50: 1.71 µM
  TGI: > 100 µM
HCC-2998 colon
  GI50: 3.79 µM
  TGI: 15.1 µM
HCT-116 colon
  GI50: 2.62 µM
  TGI: 12 µM
HCT-15 colon
  GI50: 3.73 µM
  TGI: 35.1 µM
HL-60(TB) leukemia
  GI50: 2.53 µM
  TGI: 6.12 µM
HOP-62 NSCLC
  GI50: 4.42 µM
  TGI: 30 µM
HS 578T breast
  GI50: 1.85 µM
  TGI: 9.82 µM
HT29 colon
  GI50: 3.2 µM
  TGI: > 100 µM
IGROV1 ovarian
  GI50: 3.03 µM
  TGI: 12.1 µM
K-562 leukemia
  GI50: 2.99 µM
  TGI: > 100 µM
KM12 colon
  GI50: 2.52 µM
  TGI: 11.4 µM
LOX IMVI melanoma
  GI50: 2.26 µM
  TGI: 6.62 µM
M14 melanoma
  GI50: 4.48 µM
  TGI: 45.1 µM
MALME-3M melanoma
  GI50: 2.36 µM
  TGI: 7.34 µM
MCF7 breast
  GI50: 2.76 µM
  TGI: > 100 µM
MDA-MB-231 breast
  GI50: 3.28 µM
  TGI: 45 µM
NCI-H226 lung
  GI50: 6.1 µM
  TGI: 40.6 µM
NCI-H23 lung
  GI50: 3.78 µM
  TGI: > 100 µM
NCI-H460 lung
  GI50: 2.99 µM
  TGI: 12.6 µM
NCI-H522 lung
  GI50: 2.74 µM
  TGI: 35.5 µM
NCI/ADR-RES ovarian
  GI50: 2.18 µM
  TGI: 8.04 µM
OVCAR-3 ovarian
  GI50: 2.47 µM
  TGI: 8.56 µM
OVCAR-5 ovarian
  GI50: 7.38 µM
  TGI: 53.3 µM
OVCAR-8 ovarian
  GI50: 2.83 µM
  TGI: 11.1 µM
PC-3 prostate
  GI50: 3.71 µM
  TGI: > 100 µM
RPMI-8226 leukemia
  GI50: 0.398 µM
  TGI: 2.51 µM
SF-268 CNS
  GI50: 3.58 µM
  TGI: 65.2 µM
SF-295 CNS
  GI50: 1.85 µM
  TGI: 4.42 µM
SF-539 CNS
  GI50: 2.71 µM
  TGI: 14.7 µM
SK-MEL-2 melanoma
  GI50: 2.37 µM
  TGI: 7.19 µM
SK-MEL-28 melanoma
  GI50: 3.3 µM
  TGI: 14.7 µM
SK-MEL-5 melanoma
  GI50: 1.5 µM
  TGI: 2.92 µM
SK-OV-3 ovarian
  GI50: 4.92 µM
  TGI: > 100 µM
SN12C renal
  GI50: 4.1 µM
  TGI: 83.7 µM
SNB-19 CNS
  GI50: 4.91 µM
  TGI: > 100 µM
SNB-75 CNS
  GI50: 3.92 µM
  TGI: > 100 µM
SW-620 colon
  GI50: 2.78 µM
  TGI: 55.6 µM
T-47D breast
  GI50: 3.01 µM
  TGI: > 100 µM
TK-10 renal
  GI50: 3.28 µM
  TGI: 8.74 µM
U251 CNS
  GI50: 2.91 µM
  TGI: 65.5 µM
UACC-257 melanoma
  GI50: 3.24 µM
  TGI: 15.4 µM
UACC-62 melanoma
  GI50: 4.86 µM
  TGI: 22.1 µM
UO-31 renal
  GI50: 0.552 µM
  TGI: 12.7 µM
